Laboratory results taken from patent US6387417B1, “Bactericide against vancomycin resistant enterococcus” (priority 2000, dated 2002).
Like-named read-outs stand apart in the source and are kept apart here.

Columns and labels:
[1] = system: Enterococcus gallinarum KIH-241; experiment: MIC of antibiotics for the strain used; assay type: cell-based
[2] = system: Enterococcus faecalis KIH-C233; experiment: MIC of antibiotics for the strain used; assay type: cell-based; details: E. faecalis KIH-C233, collected from a patient
[3] = Solubility of hinokitiol in liquid carrier; assay type: physicochemical
[4] = system: Enterococcus faecium KIH-237; experiment: MIC of antibiotics for the strain used; assay type: cell-based; details: KIH237, E. faecium KIH-237, collected from an imported chicken
[5] = system: Enterococcus faecium KIH-234; experiment: MIC of antibiotics for the strain used; assay type: cell-based; details: KIH234, E. faecium KIH-234, collected from a patient
[6] = expected maximum; cited from earlier work
[7] = Enterococcus gallinarum, E. gallinarum KIH-241, collected from a chicken grown in Japan, read-out: MIC
[8] = Enterococcus faecalis, KIHC233, read-out: MIC

Row | SMILES | MIC [1, 7] [µg/mL] | MIC [4] [µg/mL] | MIC [2, 8] [µg/mL] | MIC [5] [µg/mL] | also measured
1 | C[C@@H](O)[C@H]1C(=O)N2C(C(=O)O)=C(SCCN=CN)C[C@H]12 [IPM, imipenem] | – | – | – | – | MIC ([1]; E. gallinarum KIH-241, collected from a chicken grown in Japan): 1 µg/mL; MIC [2]: 1 µg/mL
2 | CC(C)c1cccc(=O)c(O)c1 [hinokitiol, Hinokitiol] | – | – | – | – | hinokitiol content achievable in the composition ([3]; alcohol as liquid carrier, without aloe extract and the like extract): up to 5 % by mass; hinokitiol concentration obtainable in aqueous solution ([3]; water with surface active agent (glycerin fatty acid ester) and/or botanical emulsifier (quillaia saponin)): up to 10 % by mass; hinokitiol concentration obtainable in aqueous solution ([3]; water, combined with the aloe extract and like extracts): about 1 % by mass
3 | CC1(C)S[C@@H]2[C@H](NC(=O)Cc3ccccc3)C(=O)N2[C@H]1C(=O)O [PCG, benzylpenicillin] | 1 | 16 | 4 | 16 | –
4 | CO[C@@]1(NC(=O)CSCC#N)C(=O)N2C(C(=O)O)=C(CSc3nnnn3C)CS[C@@H]21 [CMZ, cefmetazole] | > 32 | > 32 | > 32 | > 32 | –
5 | CC[C@H]1OC(=O)[C@H](C)[C@@H](O[C@H]2C[C@@](C)(OC)[C@@H](O)[C@H](C)O2)[C@H](C)[C@@H](O[C@@H]2O[C@H](C)C[C@H](N(C)C)[C@H]2O)[C@](C)(O)C[C@@H](C)C(=O)[C@H](C)[C@@H](O)[C@]1(C)O [EM, erythromycin] | > 1 | > 32 | > 32 | > 32 | –
6 | CC1(C)S[C@@H]2[C@H](NC(=O)[C@H](N)c3ccccc3)C(=O)N2[C@H]1C(=O)O [ABPC, aminobenzylpenicillin] | 4 | 4 | 1 | 16 | –
7 | CN[C@H](CC(C)C)C(=O)N[C@H]1C(=O)N[C@@H](CC(N)=O)C(=O)N[C@H]2C(=O)N[C@H]3C(=O)N[C@H](C(=O)N[C@H](C(=O)O)c4cc(O)cc(O)c4-c4cc3ccc4O)[C@H](O)c3ccc(c(Cl)c3)Oc3cc2cc(c3O[C@@H]2O[C@H](CO)[C@@H](O)[C@H](O)[C@H]2O[C@H]2C[C@](C)(N)[C@H](O)[C@H](C)O2)Oc2ccc(cc2Cl)[C@H]1O [VCM, vancomycin] | – | 500 | 2 | 0.5 | concentration of vancomycin in blood at maximum [6]: no more than 6 μg/ml; MIC ([1]; Enterococcus gallinarum, GALLINARUM): 8 µg/mL
